# Reference: PubChem BioAssay AID463204 (Broad Institute, 2010)
# Calls of active or inactive are those of the source.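 How the source made its calls: active means AC50 no more than ten times the top concentration tested, that is within one log above it; inconclusive means flat curve fit with activity between 30% and 70%, or invalid poor fit; inactive means AC50 beyond ten times the top tested dose.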
# Test system: S. cerevisiae Mot1-301 ts growth rescue, BacTiter-Glo ATP luminescence
# Experiment: growth rescue of Mot1-301 ts yeast, confirmation, SUMOylation pathway inhibitor project, whole organism, S. cerevisiae, Mot1-301 ts mutant, luminescence, dose retest (AID 463204);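 further: growth at restrictive 38.5 degrees C of Mot1-301 OY566 strain; actives raise luminescence by restoring growth of the ts mutant at high temperature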
row,SMILES,AC50
1,O=C(OCC#CCSc1nnc(-c2ccccc2)o1)c1cc2ccccc2o1,> 42 µM (inactive)
2,Cc1ccccc1-c1nnc(CN2CCC(C)CC2)o1,> 42 µM (inactive)
3,Nc1ccc(S(=O)(=O)NNC(=O)C(=O)NNc2ccccc2)cc1,> 42 µM (inactive)
4,CN(C)S(=O)(=O)c1cc(NC(=O)CSc2nn(-c3ccc(Cl)cc3)c(=S)s2)ccc1Cl,31.1 µM
5,COc1ccc(/C=N/NC(=O)c2nnn(-c3nonc3N)c2-c2cccs2)cc1OC,> 42 µM (inactive)
6,COCCCNS(=O)(=O)c1ccc(Oc2ncc(C(F)(F)F)cc2Cl)cc1,> 42 µM (inactive)
7,Cc1ccc(C)c(OCCCC(=O)N2CCOCC2)c1,> 42 µM (inactive)
8,COc1cc(C(=O)NCCC2=CCCCC2)ccc1OC1CCN(C(C)=O)CC1,> 42 µM (inactive)
9,Cc1nnc(N=c2ssnc2Cl)o1,3.31 µM
10,Cc1nc(N)c(Cc2ccccc2F)c(N)n1,> 42 µM (inactive)
11,CC(C)CC(=O)Nc1ccc(C(=O)CN2C(=O)NC3(CCOc4ccccc43)C2=O)cc1 (stereo not drawn),> 42 µM (inactive)
12,CN(C)S(=O)(=O)N1CCc2ccccc2C1,> 42 µM (inactive)
13,c1ccc(C(c2ccccc2)N2CCN(C(c3ccccn3)c3nnnn3C3CCCC3)CC2)cc1 (stereo not drawn),> 42 µM (inactive)
14,CCN1C(=O)N(C)[C@@H](c2ccccc2)C(C(=O)OC)=C1C,> 42 µM (inactive)
15,Cc1nc(CSc2nnc3scc(-c4ccccc4)n23)cs1,> 42 µM (inactive)
16,Cc1cc(C)n2c(SCC(C)C)nnc2n1,> 42 µM (inactive)
17,CN(C)S(=O)(=O)c1cccc(NC(=O)COc2nc3ccccc3nc2N2CCOCC2)c1,> 42 µM (inactive)
18,CCCN1CCN(CCCNC(=O)CCn2nc(-c3ccccc3)ccc2=O)CC1,> 42 µM (inactive)
19,COC(=O)c1sc(NC(=O)c2ccc(Cn3cc(Cl)cn3)o2)c(C#N)c1C,> 42 µM (inactive)
20,CCOC(=O)N1CCC(NS(=O)(=O)c2ccc(C)c(Cl)c2)CC1,> 42 µM (inactive)
21,COc1cccc(CN2CCN(C(=O)c3cccc4ccccc34)CC2)c1OC,> 42 µM (inactive)
22,O=C(/C=C/c1cccc([N+](=O)[O-])c1)NCCSCc1ccc(Cl)cc1Cl,> 42 µM (inactive)
23,Cc1ccc(S(=O)(=O)N(C)CC(=O)O/N=C(\N)c2ccccn2)cc1,> 42 µM (inactive)
24,CCOC(C(=O)OCCCN(CC)CC)(c1ccccc1)c1ccccc1,> 42 µM (inactive)
25,CN(Cc1ccc(C(C)(C)C)cc1)C(=O)c1ccc2c(=O)n3c(nc2c1)CCC3,> 42 µM (inactive)

row,SMILES,AC50
1,O=C1CCCN1CCC(=O)N1CCCC(N2CCN(c3ccccc3F)CC2)C1 (stereo not drawn),> 42 µM (inactive)
2,CCN(CC)c1nc(Nc2ccc(Cl)cc2)nc(OCC#N)n1,> 42 µM (inactive)
3,O=C1C2C(c3ccccc3)CC=CC2[C@H](c2ccc3ccccc3c2)N1Cc1ccccc1 (stereo partly drawn),11.3 µM
4,COCCn1c(SCC(=O)NCc2cccs2)nnc1-c1ccc(OC)cc1,> 42 µM (inactive)
5,CC(N=C(NC#N)Nc1ccncc1)C(C)(C)C (stereo not drawn),> 42 µM (inactive)
6,COc1ccccc1C1NC(=O)CS1 (stereo not drawn),> 42 µM (inactive)
7,CN(C(=O)c1ccc(-c2nn(C)c(=O)c3ccccc23)cc1)C1CCCCC1,> 42 µM (inactive)
8,CCN(CC)C(=O)CSC(Nc1cccc(F)c1)=C(C#N)C#N,> 42 µM (inactive)
9,N#Cc1cccc(NC(=O)CSc2n[nH]c(=O)[nH]c2=O)c1,> 42 µM (inactive)
10,COc1ccc2c(c1)OC[C@H]1[C@H]2N2C(=O)c3cc(F)ccc3NC(=O)[C@@]2(C)[C@H]1c1ccccc1,3.15 µM
11,Cc1ccc2c(C)c(C(=O)N(C)C(C)c3ccncn3)oc2c1C (stereo not drawn),> 42 µM (inactive)
12,O=c1cc(COc2ncnc3ccccc23)nc2sccn12,> 42 µM (inactive)
13,Cc1nc2ccc(NC(=O)c3ccc(S(=O)(=O)N4CCOCC4)cc3)cc2s1,> 42 µM (inactive)
14,COc1cc(CN2CCCC(CO)(Cc3cccc(Cl)c3)C2)cc2c1OCO2 (stereo not drawn),> 42 µM (inactive)
15,NC(=O)C1CCN(C2CC(=O)N(c3ccc(F)c(Cl)c3)C2=O)CC1 (stereo not drawn),7.8 µM
16,COc1cc(O)oc1C=Nc1ccc(C(=O)O)cc1,> 42 µM (inactive)
17,COc1cc(/C=C2\NC(=S)N(C)C2=O)ccc1OCc1cccc(F)c1,> 42 µM (inactive)
18,CC(C)C1OC2(C)OC(=N)C1(C#N)C(C#N)(C#N)C2c1ccccc1 (stereo not drawn),> 42 µM (inactive)
19,O=C(c1cc(Cl)c(=O)n(Cc2ccc(Cl)cc2)c1)N1CCOCC1,> 42 µM (inactive)
20,COc1ccc(OC)c(Cc2nnc(CCC(=O)NCc3ccsc3)o2)c1,> 42 µM (inactive)
21,CCCNCC(O)COc1ccccc1C(=O)CCc1ccccc1 (stereo not drawn),> 42 µM (inactive)
22,N#CC(C#N)=C1C=CC=CN1/C(=C\c1ccccc1Cl)C(=O)c1ccccc1,2.03 µM
23,COc1ccccc1/C=C/C(=O)c1c2c(c(C)[nH]c1=O)CCCC2,> 42 µM (inactive)
24,Cc1occc1-c1nnc(SCC(=O)N2CCN(c3ccccc3)CC2)n1C,> 42 µM (inactive)
25,Cc1ccccc1-c1nnnn1C1CCS(=O)(=O)C1 (stereo not drawn),> 42 µM (inactive)

row,SMILES,AC50
1,COc1ccccc1C(=O)OCC(=O)NC(=O)NCc1ccccc1,> 42 µM (inactive)
2,CCN1C(=NCC(C)C)N[C@@H](c2cccc(C(F)(F)F)c2)C(C(=O)OC)=C1C,> 42 µM (inactive)
3,CC(C)[N+]1(C)[C@@H]2CC[C@@H]1CC(OC(=O)C(CO)c1ccccc1)C2 (stereo partly drawn),> 42 µM (inactive)
4,CCC(CC)C(=O)Nc1ccc(S(=O)(=O)Nc2nccs2)cc1,> 42 µM (inactive)
5,O=C(N1CCOCC1)C1(S(=O)(=O)c2ccccc2)CC=CC1,> 42 µM (inactive)
6,CC(=O)c1ccc2noc(-c3ccc(F)cc3)c2c1,> 42 µM (inactive)
7,COC/C=C/C1=CC2=CC(=O)C(C)(OC(=O)c3cnc4ccccc4n3)C(=O)C2=CN1CCOC (stereo not drawn),> 42 µM (inactive)
8,Cc1ccc(C(=O)N/C(=C\c2cccs2)C(=O)NCc2ccncc2)cc1,> 42 µM (inactive)
9,COc1cccc(/C=C2\SC(N3CCC(C)CC3)=NC2=O)c1OC,> 42 µM (inactive)
10,COC(=O)c1cc2occc2n1Cc1nc(-c2ccccc2C)oc1C,> 42 µM (inactive)
11,CC(C)(C)NC(=O)CN(C(=O)CCC(=O)Nc1nccs1)c1ccc2c(c1)OCCO2,> 42 µM (inactive)
12,COc1ccc(CCNC(=O)CC2C(=O)NCCN2CC(C)(C)C)cc1 (stereo not drawn),> 42 µM (inactive)
13,COc1cc([N+](=O)[O-])cc(/C=N/NC(=O)c2cc(C)nc3ccccc23)c1O,> 42 µM (inactive)
14,CCn1c(N2CCN(C(=O)C34CC5CC(CC(C5)C3)C4)CC2)nc2ccccc21,> 42 µM (inactive)
15,Cc1ccc(N(C(=O)CCl)C(C(=O)NC2CCCCC2)c2cccnc2)cc1C (stereo not drawn),9.72 µM
16,COc1ccc(NC(=O)c2ccc(COc3ccccc3OC)o2)cc1OC,> 42 µM (inactive)
17,COc1ccc2c(c1)[C@H]1[C@H](CO2)[C@H](c2ccccc2)[C@]2(C)C(=O)Nc3ccc(C)cc3C(=O)N12,> 42 µM (inactive)
18,CC(C)(C)C(=O)Nc1ccc(C(=O)NCc2cccnc2)cc1,> 42 µM (inactive)
19,Cc1c(=O)n(OCc2ccccn2)c2ccccc2[n+]1[O-],> 42 µM (inactive)
20,COc1ccc2cc(C(=O)Nc3ccc(Cl)cc3)sc(=O)c2c1OC,> 42 µM (inactive)
21,COc1ccc(C)cc1NC(=S)N1CCN(c2ccccn2)CC1,> 42 µM (inactive)
22,Cc1ccc(C(=O)NCC(=O)Nc2ccc3c(c2)OCCO3)cc1,> 21 µM (inactive)
23,CC(C)n1c(CN(C)c2ccccc2)nc2ccccc21,> 42 µM (inactive)
24,CCOC(=O)c1cccc(NC(=O)C2CCCN(S(=O)(=O)c3c(C)n[nH]c3C)C2)c1 (stereo not drawn),> 42 µM (inactive)
25,Cc1ccc(C2C(C(=O)c3cccs3)=C(O)C(=O)N2c2ccc(S(N)(=O)=O)cc2)cc1 (stereo not drawn),> 42 µM (inactive)

row,SMILES,AC50
1,Cc1c(C(=O)Nc2cccc(F)c2)cnn1-c1ccccc1,> 42 µM (inactive)
2,COCCN(C(=O)CSc1nnc(-c2ccc(C)cc2)n1N)c1c(N)n(Cc2ccccc2)c(=O)[nH]c1=O,> 42 µM (inactive)
3,CC1=C(C(N)=O)C(c2ccccn2)n2nc(SCc3ccccc3Cl)nc2N1 (stereo not drawn),> 42 µM (inactive)
4,CC(C)NC(=O)CCCc1cn(C)c2ccccc12,> 42 µM (inactive)
5,NS(=O)(=O)c1ccc(CCNC(=O)c2ccc([N+](=O)[O-])s2)cc1,> 42 µM (inactive)
6,O=C(/C(=N\Nc1ccc(Br)cc1)Sc1nnnn1-c1ccccc1)c1ccccc1,> 42 µM (inactive)
7,Cc1ccc(NC(=O)COc2ccccc2C(=O)NCCN(C)C)cc1,> 42 µM (inactive)
8,O=C(/C=C/c1ccc(F)cc1)NCC1(c2ccccc2)CCOCC1,> 42 µM (inactive)
9,COc1cc(/C=C(\NC(=O)c2ccccc2)C(=O)Nc2nccs2)ccc1OC(C)=O,> 42 µM (inactive)
10,N/C(=N\NC(=O)c1sccc1OCc1ccc(Cl)cc1Cl)c1ccccn1,> 42 µM (inactive)
11,C[C@H](NC(=O)OC(C)(C)C)C(=O)NCC1CCC(C(=O)N[C@@H](Cc2ccccc2)C(=O)O)CC1 (stereo partly drawn),> 42 µM (inactive)
12,Nc1nnc(COc2ccc(Br)cc2Br)s1,> 42 µM (inactive)
13,COc1cc(/C=N/NC2=NS(=O)(=O)c3ccccc32)cc(OC)c1OC,> 42 µM (inactive)
14,Cc1cc(=O)oc(C)c1C(=O)Nc1ccc(Cl)cn1,> 42 µM (inactive)
15,CC(C)NC(=O)COc1ccc(S(=O)(=O)N(C)Cc2ccccc2)cc1,> 42 µM (inactive)
16,COc1ccccc1NC(=O)COC(=O)CC(C)(C)CC1=NS(=O)(=O)c2ccccc2N1,> 42 µM (inactive)
17,COc1ccccc1CSc1ncc(-c2ccc([N+](=O)[O-])cc2)[nH]1,> 42 µM (inactive)
18,COc1ccc2c(Cl)c(C(=O)NN3CCN(C)CC3)sc2c1,> 42 µM (inactive)
19,CCCCCNC(=O)c1ccc2c(=O)n(CC3CCCO3)c(=O)[nH]c2c1 (stereo not drawn),> 42 µM (inactive)
20,CCC(C)[C@H](N)c1nnc(SCC(=O)Nc2cccc(Cl)c2)o1 (stereo partly drawn),> 42 µM (inactive)
21,Clc1ccccc1C(c1ccccc1)(c1ccccc1)n1ccnc1,3.47 µM
22,O=C(Cc1cccs1)Nc1cccc(-c2nnc(-c3ccco3)o2)c1,> 42 µM (inactive)
23,COc1cccc(CN(C)CC2CCCN(CCc3ccc(Cl)cc3)C2)c1OC (stereo not drawn),> 42 µM (inactive)
